pEC50, pKi: −log10 of the molar value.
Key:
Protease = Protease (Human immunodeficiency virus 1, UniProt Q9YQ12); test: Inhibition of HIV1 protease expressed in Escherichia coli by fluorometric assay
[1] = test system: Human immunodeficiency virus; test: Antiviral activity against HIV infected in human MT4 cells assessed as inhibition of virus-induced cytopathogenic effect by XTT assay; format: functional, organism-based; conditions: Human immunodeficiency virus 1, MT4
[2] = Cytotoxicity against human MT4 cells after 5 days by XTT assay; format: cell-based
[3] = Permeability of the compound across human Caco2 cells; format: ADME, cell-based; conditions: Caco-2, read-out: permeability

Sequence of Protease (Q9YQ12 whole entry): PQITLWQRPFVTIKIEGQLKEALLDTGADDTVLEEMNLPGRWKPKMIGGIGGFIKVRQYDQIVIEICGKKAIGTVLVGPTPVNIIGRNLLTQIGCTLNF

SMILES | pKi (Protease) | Papp [3] [×10⁻⁶ cm/s] | pEC50 [1] | CC50 at 120 h [2] [µM]
C=CCNC(=O)[C@@H](NC(=O)[C@@](O)(CCCN(Cc1ccc(Br)cc1)NC(=O)[C@@H](NC(=O)OC)C(C)(C)C)Cc1ccc(Br)cc1)C(C)(C)C | 8.00 | – | 5.54 | 29
C=CCNC(=O)[C@@H](NC(=O)[C@@](O)(CCCN(Cc1ccc(Br)cc1)NC(=O)[C@@H](NC(=O)OC)C(C)(C)C)Cc1ccc(C=C)cc1)C(C)(C)C | 7.80 | 45 | 5.28 | 44
C=CCNC(=O)[C@@H](NC(=O)[C@@](O)(CCCN(Cc1ccc(Br)cc1)NC(=O)[C@@H](NC(=O)OC)C(C)(C)C)Cc1ccc(CC=C)cc1)C(C)C | 7.52 | 44 | 5.22 | 24
C=CCNC(=O)[C@@H](NC(=O)[C@@](O)(CCCN(Cc1ccc(Br)cc1)NC(=O)[C@@H](NC(=O)OC)C(C)(C)C)Cc1ccc(CC=C)cc1)C(C)(C)C | 7.43 | 44 | 5.12 | > 50
C=CCNC(=O)[C@@H](NC(=O)[C@](O)(CCCN(Cc1ccc(Br)cc1)NC(=O)[C@@H](NC(=O)OC)C(C)(C)C)Cc1ccc(Br)cc1)C(C)C | 6.00 | – | < 4.30 | 4.5
C=CCNC(=O)[C@@H](NC(=O)[C@](O)(CCCN(Cc1ccc(Br)cc1)NC(=O)[C@@H](NC(=O)OC)C(C)(C)C)Cc1ccc(C=C)cc1)C(C)(C)C | 6.14 | – | < 4.30 | 25
COC(=O)N[C@H](C(=O)NN(CCC[C@@]1(O)Cc2ccc(cc2)/C=C\CNC(=O)[C@H](C(C)(C)C)NC1=O)Cc1ccc(Br)cc1)C(C)(C)C | 8.30 | 31 | 5.48 | 40
COC(=O)N[C@H](C(=O)NN(CCC[C@@]1(O)Cc2ccc(cc2)C/C=C\CNC(=O)[C@H](C(C)C)NC1=O)Cc1ccc(Br)cc1)C(C)(C)C | 8.51 | 9 | 6.43 | > 50
CNC(=O)[C@@H](NC(=O)[C@@](O)(CCCN(Cc1ccc(Br)cc1)NC(=O)[C@@H](NC(=O)OC)C(C)(C)C)Cc1ccccc1)C(C)C | – | – | 5.68 | > 10

The remaining molecules from weak to strong by pKi (Protease), led by results:

pKi (Protease) | Papp [3] [×10⁻⁶ cm/s] | SMILES | pEC50 [1] | CC50 at 120 h [2] [µM]
6.01 | – | C=CCNC(=O)[C@@H](NC(=O)[C@](O)(CCCN(Cc1ccc(Br)cc1)NC(=O)[C@@H](NC(=O)OC)C(C)(C)C)Cc1ccc(Br)cc1)C(C)(C)C | < 4.30 | 21
6.11 | – | C=CCNC(=O)[C@@H](NC(=O)[C@](O)(CCCN(Cc1ccc(Br)cc1)NC(=O)[C@@H](NC(=O)OC)C(C)(C)C)Cc1ccc(C=C)cc1)C(C)C | < 4.30 | 5.8
7.82 | – | C=CCNC(=O)[C@@H](NC(=O)[C@@](O)(CCCN(Cc1ccc(Br)cc1)NC(=O)[C@@H](NC(=O)OC)C(C)(C)C)Cc1ccc(C=C)cc1)C(C)C | 5.16 | 25
7.96 | – | C=CCNC(=O)[C@@H](NC(=O)[C@@](O)(CCCN(Cc1ccc(Br)cc1)NC(=O)[C@@H](NC(=O)OC)C(C)(C)C)Cc1ccc(Br)cc1)C(C)C | 5.24 | 22
8.38 | 10 | COC(=O)N[C@H](C(=O)NN(CCC[C@@]1(O)Cc2ccc(cc2)C/C=C\CNC(=O)[C@H](C(C)(C)C)NC1=O)Cc1ccc(Br)cc1)C(C)(C)C | 6.00 | 30

From ChEMBL document CHEMBL3085680, “Design and synthesis of P1-P3 macrocyclic tertiary-alcohol-comprising HIV-1 protease inhibitors” (J Med Chem, 2013)
